The subject of experiment [1] is Methylophilus methylotrophus AS-1 (NCIB 10515; ATCC 53528). In words: Sensitivity of the wild type strain to phenylalanine analogs on 121(Fe2)-agar medium. To be noted: for amount at which the wild type strain (strain AS-1) can not grow: usually, under the conditions described in Examples. It is filed as cell-based. The text has this: To be resistant to an phenylalanine analog means that the bacterium can grow in the presence of the phenylalanine analog in the amount at which the wild type strain (for example, strain AS-1) can not grow. The amount varies depending on the kinds of the phenylalanine analog.
To be resistant to L-phenylalanine means that the bacterium can grow in the presence of L-phenylalanine in the amount at which the wild type strain (for example, strain AS-1) can not grow. The amount is usually 8 g/l under the conditions described in Examples mentioned below.
To be resistant to cinnamic acid means that the bacterium can grow in the presence of cinnamic acid in the amount at which the wild type strain (for example, strain AS-1) can not grow. The amount is usually 50 mg/l under the conditions described in Examples mentioned below.
The 10^8 c.f.u./ml of M. methylotrophus bacteria were plated and grown at +30° C. for 3 days. […] The several crystals of N-methyl-N′-nitro-N-nitrosoguanidin (hereinafter abbreviated to NG) mutagen was placed in the middle of the plate. After 4-5 days at 30° C., the plates were analyzed.

The test system of experiment [2] is M. methylotrophus pFp^R mutant No. 227. In words: Growth of pFp^R mutant on agarized 121-medium with L-phenylalanine. It is filed as cell-based, Methylophilus methylotrophus. Particulars: added into the agarized 121-medium.
Experiment [3] concerns Methylophilus methylotrophus pFp^R phe^R mutant strain No. 227-16. It is filed as cell-based. An excerpt: The new mutants which were resistant to 1 g/L of meta-fluorophenylalanine (hereinafter abbreviated to mFp^R) were isolated from the strain No. 227-16 after NG-mutagenesis as it was described above.

`NC(Cc1ccc(F)cc1)C(=O)O` (racemic) [DL-p-fluorophenylalanine]: the “concentration that totally inhibited the growth of the bacteria lawn” value in experiment [1] (121(Fe2)-agar medium, 10^8 c.f.u./ml plated, +30° C., 3 days) stood at 1 mg/mL. Also, the “amount at which the wild type strain (strain AS-1) can not grow” value (shortened to “amount … (strain AS-1) can not grow”) in experiment [1] was 2 g/L.
Consider `N[C@@H](Cc1ccccc1)C(=O)O` [L-phenylalanine], for which, in experiment [1], the “amount … (strain AS-1) can not grow” value was 8 g/L. Further, the “concentration that totally inhibited the growth” value in experiment [2] was found to be 0.1 M. The “concentration to which the strain was resistant” value in experiment [3] (strain No. 227-16) was 0.05 M.
Regarding `O=C(O)C=Cc1ccccc1` [cinnamic acid], the “amount … (strain AS-1) can not grow” value in experiment [1] came to 0.05 g/L.
In the case of `N[C@@H](Cc1cccc(F)c1)C(=O)O` [m-fluorophenylalanine], the “amount … (strain AS-1) can not grow” value in experiment [1] came to 1 g/L. For the same molecule, the “growth of the strain in the presence of the analog” value in experiment [3] (strain No. 227-16, 1 g/l of the analog) is “only a slight growth”.

The values are drawn from patent US6350596B2, “Method for producing L-phenylalanine” (Ajinomoto Co., Inc., priority 2000, dated 2002).
